According to article PMC8635125, “A Novel Dibenzoxazepine Attenuates Intracellular Salmonella Typhimurium Oxidative Stress Resistance” (Microbiology Spectrum, 2021):
Read-outs that look alike come from different tables or passages of the source.

Legend:
[1] = test system: intracellular S. Typhimurium in RAW264.7 macrophages; test: microbe, parasite or virus in culture; type: cell-based, Salmonella enterica serovar Typhimurium; settings: for viability at 0.5 µM: TYPHIMURIUM, RAW264.7, read-out: viability of intracellular Salmonella compared to mock-treated cells
Method: Overnight cultures of RFP-expressing S. Typhimurium were prepared for infection by 1:100 dilution in fresh LB broth and incubation for 2 h at 37°C. The bacteria were then collected by centrifugation at 6,000 × g for 3 min and suspended in phosphate-buffered saline (PBS; pH 7.2) to an optical density of 0.6 at 600 nm, which was equivalent to 5 × 10^8 CFU/mL. RAW264.7 macrophages were seeded in 96-well black clear-bottom plates (Greiner) and incubated for 20 h followed by infection with RFP-expressing S. Typhimurium at a multiplicity of infection (MOI) of 50 for 1 h. […] Afterward, the cells were washed and stained with CellTracker Green (Thermo Fisher Scientific) for 30 min in serum-free DMEM followed by fixation in 3.7% formaldehyde (Sigma-Aldrich) for 20 min and stained with 0.2 mg/L DAPI (4′,6-diamidino-2-phenylindole; AAT Bioquest) for 30 min. Images of individual wells were captured and analyzed using a high-content imaging system (ImageXpress Micro 4; Molecular Devices). The CC50 and 50% effective concentration (EC50) values against intracellular bacteria of each compound were determined using CalcuSyn software (Biosoft).

S. Typhimurium = test: Bacterial growth assay (OD600); type: cell-based, Salmonella enterica serovar Typhimurium; settings: for concentration inhibiting bacterial growth (OD600): 24 h
Method: Overnight-grown S. […] The plate was incubated at 37°C, and bacterial growth was monitored by measuring the absorbance at 600 nm with a VersaMax Microplate reader (Molecular Devices) at designated times for 24 h.

**Q.** What does the source list for `Clc1ccc2c(c1)C(NCCN1CCNCC1)=Nc1ccccc1O2` [SW14]?
**A.** inhibitory activity of ciprofloxacin and cefixime on intracellular Salmonella in combination with SW14 ([1]; 0.5 μM SW14, 24 h, equal to the antibiotic at 2-fold concentration): enhanced; selectivity index (SI; CC50/EC50) ([1]; CC50 RAW264.7 / EC50 intracellular Salmonella): 47; susceptibility of intracellular Salmonella to SW14 after Atg7 knockdown ([1]; RAW264.7 shATG7 clones vs empty vector, 24 h): more susceptible; viability at 0.5 µM ([1]; Salmonella enterica, 3-MA 10 mM for 1 h, then SW14 0.5 μM for 24 h, HCA): 36.8%; viability at 0.5 µM ([1]; Salmonella enterica, SW14 0.5 μM alone, 24 h, HCA): 45%; EC50 ([1]; Salmonella enterica, RFP-expressing S. Typhimurium in RAW264.7, 24 h, with gentamicin 20 mg/L, HCA, read-out: 50% effective concentration (EC50) against intracellular Salmonella): 500 nM; suppressive effect on intracellular S. Typhimurium in the presence of ROS scavengers ([1]; with NAC 10 mM or GSH 10 mM): reversed; concentration inhibiting bacterial growth (OD600) (S. Typhimurium; Luria-Bertani (LB) medium): > 64 µM; growth of Salmonella in LPM medium (S. Typhimurium; acidic low-phosphate, low-magnesium (LPM) medium): unable to detect any significant change; concentration inhibiting bacterial growth in broth (S. Typhimurium; broth): > 64 µM; concentration inhibiting bacterial growth (OD600) (S. Typhimurium; cell culture medium (DMEM + 10% FBS)): > 64 µM
